Reference: ChEMBL document CHEMBL1201862, “PubChem BioAssay data set” (2004)
Activity calls are given as the source filed them.

Columns and labels:
[1] = target: Cytochrome P450 3A4 (Homo sapiens, UniProt P08684); conditions: Potency;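 further: confirmatory qHTS run detecting inhibitors and substrates of CYP3A4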
[2] = target: Eukaryotic translation initiation factor 4E (Mus musculus, UniProt P63073); test: eIF4E–eIF4G protein interaction inhibitors, dose response, biochemical, TR-FRET (AID 855); type: functional;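 further: potency for disrupting eIF4E binding to eIF4GI seen as loss of FRET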
Sequence of Eukaryotic translation initiation factor 4E (P63073 whole entry): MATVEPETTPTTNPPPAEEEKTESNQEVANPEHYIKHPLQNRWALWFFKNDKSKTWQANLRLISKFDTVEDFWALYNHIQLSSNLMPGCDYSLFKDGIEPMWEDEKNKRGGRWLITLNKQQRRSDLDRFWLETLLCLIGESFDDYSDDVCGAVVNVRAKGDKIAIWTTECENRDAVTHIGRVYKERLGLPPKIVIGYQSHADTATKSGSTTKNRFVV

[3] = target: Cytochrome P450 2C9 (Homo sapiens, UniProt P11712)
Sequence of Cytochrome P450 2C9 (P11712 whole entry): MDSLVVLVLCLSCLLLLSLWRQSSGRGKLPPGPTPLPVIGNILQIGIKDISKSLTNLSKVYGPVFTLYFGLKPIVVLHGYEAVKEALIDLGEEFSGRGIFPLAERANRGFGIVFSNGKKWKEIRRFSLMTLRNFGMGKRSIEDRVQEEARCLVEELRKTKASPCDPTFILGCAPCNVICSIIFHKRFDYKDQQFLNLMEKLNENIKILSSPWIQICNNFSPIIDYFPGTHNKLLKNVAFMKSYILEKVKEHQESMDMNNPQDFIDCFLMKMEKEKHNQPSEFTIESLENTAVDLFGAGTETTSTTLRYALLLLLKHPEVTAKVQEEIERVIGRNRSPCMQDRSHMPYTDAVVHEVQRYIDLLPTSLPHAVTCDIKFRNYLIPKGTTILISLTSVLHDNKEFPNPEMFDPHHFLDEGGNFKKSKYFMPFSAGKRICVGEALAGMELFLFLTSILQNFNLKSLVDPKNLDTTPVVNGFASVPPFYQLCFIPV

[4] = target: Alkaline phosphatase, placental type (Homo sapiens, UniProt P05187); test: PLAP enzyme inhibitors, confirmation, biochemical, luminescence (AID 1512); type: functional
Sequence of Alkaline phosphatase, placental type (P05187 whole entry): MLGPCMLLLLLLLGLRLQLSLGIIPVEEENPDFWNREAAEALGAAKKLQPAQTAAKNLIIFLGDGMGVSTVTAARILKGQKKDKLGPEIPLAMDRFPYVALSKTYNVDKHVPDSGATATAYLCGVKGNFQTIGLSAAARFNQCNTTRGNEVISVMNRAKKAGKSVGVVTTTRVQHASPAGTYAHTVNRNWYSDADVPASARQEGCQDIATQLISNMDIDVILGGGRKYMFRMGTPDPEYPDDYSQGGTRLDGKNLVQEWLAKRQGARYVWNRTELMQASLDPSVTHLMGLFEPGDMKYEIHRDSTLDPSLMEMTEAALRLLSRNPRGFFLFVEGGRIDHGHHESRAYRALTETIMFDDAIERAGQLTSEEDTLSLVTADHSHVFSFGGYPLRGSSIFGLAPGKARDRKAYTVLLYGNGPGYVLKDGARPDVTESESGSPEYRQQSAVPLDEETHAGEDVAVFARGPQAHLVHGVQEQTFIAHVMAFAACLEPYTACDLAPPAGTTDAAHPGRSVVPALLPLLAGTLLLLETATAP

[5] = target: T1, Estrogen receptor (Homo sapiens, UniProt P03372);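 further: potency for inhibiting coactivator peptide recruitment to the receptor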
T1 sequence (P03372 whole entry): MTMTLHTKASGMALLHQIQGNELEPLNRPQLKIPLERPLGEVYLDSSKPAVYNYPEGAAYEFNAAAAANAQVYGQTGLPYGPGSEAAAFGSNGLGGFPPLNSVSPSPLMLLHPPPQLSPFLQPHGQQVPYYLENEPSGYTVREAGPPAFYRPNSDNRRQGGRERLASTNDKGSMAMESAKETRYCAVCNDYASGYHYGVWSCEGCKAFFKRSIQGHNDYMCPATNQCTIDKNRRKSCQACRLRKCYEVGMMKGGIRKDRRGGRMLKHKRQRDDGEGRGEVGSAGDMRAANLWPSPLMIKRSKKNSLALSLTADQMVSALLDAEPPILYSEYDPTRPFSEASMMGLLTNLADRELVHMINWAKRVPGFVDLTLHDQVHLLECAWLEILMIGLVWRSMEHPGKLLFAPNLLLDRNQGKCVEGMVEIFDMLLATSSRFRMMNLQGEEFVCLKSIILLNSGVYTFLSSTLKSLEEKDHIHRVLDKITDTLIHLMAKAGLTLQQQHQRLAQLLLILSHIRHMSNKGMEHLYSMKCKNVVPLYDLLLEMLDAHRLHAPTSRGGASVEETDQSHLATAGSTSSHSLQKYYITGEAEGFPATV

[6] = Luminescence Cell-Based Dose Confirmation HTS to Identify Activators of 5'UTR Stem-Loop Driven Alpha-Synuclein mRNA Translation in H4 Neuroglioblastoma Cells. [Related pubchem assays: 1829 (Project Summary), 1814 (Primary HTS)]; type: functional
[7] = Luminescence Cell-Based Dose Response HTS to Identify Activators of Luciferase Translation or Activity in H4 […] Cells. [Related pubchem assays: 1829 (Project Summary), 1814 (Primary HTS)]; type: functional
[8] = target: T2, Rac GTPase-activating protein 1 (Homo sapiens, UniProt Q9H0H5); test: MgcRacGAP GTPase-activating activity inhibitors, confirmation, biochemical, ADP Hunter fluorescence, primary and confirmatory (AID 624330); type: functional
T2 sequence (Q9H0H5 whole entry): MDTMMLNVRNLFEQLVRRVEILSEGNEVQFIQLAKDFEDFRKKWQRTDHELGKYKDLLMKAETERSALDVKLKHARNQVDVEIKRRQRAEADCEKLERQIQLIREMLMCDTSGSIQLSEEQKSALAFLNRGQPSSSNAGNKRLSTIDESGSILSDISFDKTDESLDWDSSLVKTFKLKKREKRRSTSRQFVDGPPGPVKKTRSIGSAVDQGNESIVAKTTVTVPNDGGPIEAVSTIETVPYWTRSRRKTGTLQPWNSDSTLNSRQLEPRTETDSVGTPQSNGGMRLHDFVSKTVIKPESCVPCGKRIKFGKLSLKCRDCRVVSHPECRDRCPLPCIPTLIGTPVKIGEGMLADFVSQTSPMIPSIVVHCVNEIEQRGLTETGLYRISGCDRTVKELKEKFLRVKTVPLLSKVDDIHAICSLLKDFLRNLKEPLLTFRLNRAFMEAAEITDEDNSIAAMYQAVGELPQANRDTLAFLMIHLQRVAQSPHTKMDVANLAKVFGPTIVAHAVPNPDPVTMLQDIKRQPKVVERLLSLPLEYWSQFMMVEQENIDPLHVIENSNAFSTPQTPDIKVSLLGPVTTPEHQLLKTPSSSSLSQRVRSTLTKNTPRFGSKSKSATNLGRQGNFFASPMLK

[9] = test system: H4; test: Luminescence Cell-Based Dose Response HTS to Identify Activators of 5'UTR Stem-Loop Driven Prion Protein mRNA Translation in H4 Neuroglioblastoma Cells. [Related pubchem assays: 1829 (Project Summary), 1814 (Primary HTS)]; type: functional; conditions: Homo sapiens
[10] = target: T3, Calpain-2 catalytic subunit (Sus scrofa, UniProt P43367); test: pig calpain II inhibitor potency, dose response, biochemical, fluorogenic peptide substrate (AID 1420); type: functional
T3 sequence (P43367 whole entry): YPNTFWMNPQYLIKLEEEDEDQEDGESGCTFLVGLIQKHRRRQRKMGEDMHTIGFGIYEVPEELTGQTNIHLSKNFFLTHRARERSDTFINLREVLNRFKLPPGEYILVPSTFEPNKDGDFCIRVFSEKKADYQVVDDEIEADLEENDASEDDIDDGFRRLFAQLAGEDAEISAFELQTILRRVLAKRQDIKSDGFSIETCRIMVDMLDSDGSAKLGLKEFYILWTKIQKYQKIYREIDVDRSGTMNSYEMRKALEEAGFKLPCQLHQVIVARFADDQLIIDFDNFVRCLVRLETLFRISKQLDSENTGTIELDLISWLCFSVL

[11] = cells
[12] = target: T4, Streptokinase A (Streptococcus pyogenes serotype M1, UniProt P10520); test: S. pyogenes streptokinase expression inhibitors, potency, dose response, plasminogen activation absorbance, OD405 (AID 1914); type: functional, Streptococcus pyogenes M1 GAS;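 further: secreted streptokinase activity via plasminogen activation per viability signal from cell pellet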
T4 sequence (P10520 whole entry): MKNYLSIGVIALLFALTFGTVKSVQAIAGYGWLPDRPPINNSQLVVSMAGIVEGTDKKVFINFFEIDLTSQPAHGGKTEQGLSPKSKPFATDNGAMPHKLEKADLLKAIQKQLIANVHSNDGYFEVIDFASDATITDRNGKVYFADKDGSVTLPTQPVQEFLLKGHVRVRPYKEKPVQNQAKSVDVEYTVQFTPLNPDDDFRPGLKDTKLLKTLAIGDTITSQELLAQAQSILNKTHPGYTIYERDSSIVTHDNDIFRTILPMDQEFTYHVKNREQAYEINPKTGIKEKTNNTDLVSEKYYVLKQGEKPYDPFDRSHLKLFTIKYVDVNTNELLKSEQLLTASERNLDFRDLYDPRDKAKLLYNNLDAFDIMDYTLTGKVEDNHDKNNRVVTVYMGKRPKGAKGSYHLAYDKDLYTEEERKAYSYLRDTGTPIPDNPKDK

[13] = test system: Streptococcus sp. 'group A'; test: growth inhibition of control SK(-) GAS strain, dose response, counter-screen for streptokinase expression inhibitor project, luminescence, kanamycin, BacTiterGlo, confirmation (AID 1900); type: functional, organism-based
[14] = microbe, parasite or virus in culture; type: functional; conditions: Mycobacterium tuberculosis
[15] = test system: Streptococcus; test: Group A Streptococcus viability loss, dose response, counter-screen for streptokinase expression inhibitor project, luminescence, BacTiterGlo (AID 1915); type: functional, organism-based;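 further: potency for reduction of bacterial viability or growth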
[16] = HEp-2 cell cytotoxicity, dose response, cytotoxicity control for RSV inhibitor project, HTS (AID 2410); type: functional; conditions: human respiratory syncytial virus
[17] = target: Genome polyprotein (dengue virus type 2, UniProt P29990); test: Dengue-2 NS5 methyltransferase inhibitors, primary screen, biochemical, confirmation dose response (AID 588689); type: functional
Sequence of Genome polyprotein (P29990 2492-3391 limits assumed): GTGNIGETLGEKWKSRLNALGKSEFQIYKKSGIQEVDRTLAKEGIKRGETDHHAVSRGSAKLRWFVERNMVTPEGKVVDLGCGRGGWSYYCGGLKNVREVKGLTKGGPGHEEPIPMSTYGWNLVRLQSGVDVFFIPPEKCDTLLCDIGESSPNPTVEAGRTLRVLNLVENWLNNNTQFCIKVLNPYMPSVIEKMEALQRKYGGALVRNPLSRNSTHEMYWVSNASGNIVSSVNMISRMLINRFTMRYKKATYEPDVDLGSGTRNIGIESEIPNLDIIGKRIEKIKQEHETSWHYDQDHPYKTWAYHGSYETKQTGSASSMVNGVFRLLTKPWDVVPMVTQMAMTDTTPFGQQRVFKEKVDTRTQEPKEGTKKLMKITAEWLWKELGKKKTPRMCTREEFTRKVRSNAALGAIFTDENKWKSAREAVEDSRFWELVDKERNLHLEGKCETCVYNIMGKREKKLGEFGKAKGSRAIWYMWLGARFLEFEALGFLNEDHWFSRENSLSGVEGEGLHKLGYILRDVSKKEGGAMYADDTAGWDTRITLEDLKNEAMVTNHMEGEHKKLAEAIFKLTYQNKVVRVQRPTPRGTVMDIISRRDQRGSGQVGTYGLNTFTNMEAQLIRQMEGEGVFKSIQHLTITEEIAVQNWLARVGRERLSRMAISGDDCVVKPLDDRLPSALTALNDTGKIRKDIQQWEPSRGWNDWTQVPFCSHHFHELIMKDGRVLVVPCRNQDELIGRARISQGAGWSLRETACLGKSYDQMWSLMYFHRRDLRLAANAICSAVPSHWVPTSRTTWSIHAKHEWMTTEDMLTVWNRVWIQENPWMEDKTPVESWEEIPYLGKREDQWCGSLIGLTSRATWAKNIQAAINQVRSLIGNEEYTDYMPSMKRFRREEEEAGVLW

[18] = target: T5, Long-chain-fatty-acid--AMP ligase FadD28 (Mycobacterium tuberculosis, UniProt P9WQ59); test: Fluorescence polarization aasay to screen for inhibitors that compete for the binding of FadD28 to a bisubstrate Measured in Biochemical System Using Plate Reader - 2147-01_Inhibitor_Dose_CherryPick_Activity.; type: functional, Mycobacterium tuberculosis H37Rv
T5 sequence (P9WQ59 whole entry): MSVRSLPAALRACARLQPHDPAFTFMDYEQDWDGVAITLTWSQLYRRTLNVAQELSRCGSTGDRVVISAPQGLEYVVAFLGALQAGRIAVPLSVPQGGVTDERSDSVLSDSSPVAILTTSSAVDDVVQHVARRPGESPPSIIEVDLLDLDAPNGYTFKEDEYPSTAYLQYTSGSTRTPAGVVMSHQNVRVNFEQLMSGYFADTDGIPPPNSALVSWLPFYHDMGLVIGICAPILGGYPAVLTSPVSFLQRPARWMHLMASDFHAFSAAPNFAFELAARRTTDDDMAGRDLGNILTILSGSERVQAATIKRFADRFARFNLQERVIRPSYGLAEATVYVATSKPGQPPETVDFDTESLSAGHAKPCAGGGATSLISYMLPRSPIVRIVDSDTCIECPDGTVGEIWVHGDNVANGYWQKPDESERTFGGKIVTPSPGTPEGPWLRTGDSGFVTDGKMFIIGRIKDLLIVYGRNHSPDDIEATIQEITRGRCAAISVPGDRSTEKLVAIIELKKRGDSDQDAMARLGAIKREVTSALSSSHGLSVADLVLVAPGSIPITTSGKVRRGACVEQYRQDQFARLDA

[19] = Luminescence Cell-Based Dose Retest to Confirm Inhibitors of Cancer Stem Cells. [Related pubchem assays (depositor defined):AID2717, AID2721]; type: functional; conditions: Homo sapiens

Sequence of Cytochrome P450 3A4 (P08684 whole entry): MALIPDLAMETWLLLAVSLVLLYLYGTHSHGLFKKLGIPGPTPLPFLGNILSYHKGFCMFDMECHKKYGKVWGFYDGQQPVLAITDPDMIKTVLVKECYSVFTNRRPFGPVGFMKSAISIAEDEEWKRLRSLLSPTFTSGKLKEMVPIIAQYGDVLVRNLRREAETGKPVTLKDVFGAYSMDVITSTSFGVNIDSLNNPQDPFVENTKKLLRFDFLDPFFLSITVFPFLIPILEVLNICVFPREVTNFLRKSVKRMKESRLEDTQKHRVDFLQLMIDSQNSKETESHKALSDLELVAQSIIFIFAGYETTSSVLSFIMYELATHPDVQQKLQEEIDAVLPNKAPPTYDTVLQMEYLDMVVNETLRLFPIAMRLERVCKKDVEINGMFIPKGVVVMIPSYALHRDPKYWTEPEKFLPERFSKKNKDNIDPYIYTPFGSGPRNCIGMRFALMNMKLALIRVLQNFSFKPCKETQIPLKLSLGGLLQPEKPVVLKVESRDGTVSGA

## COc1cc(O)c2c(=O)c(O)c(-c3ccc(O)c(O)c3)oc2c1 [RHAMNETIN]
[1]
  AC50: 39.8 µM (inconclusive)

## CCc1ccc(C(=O)NNC(=O)OC)cc1
[2]
  IC50: 50 µM (inactive)

## CN(CCOc1ccc(C[C@H](Nc2ccccc2C(=O)c2ccccc2)C(=O)O)cc1)c1ccccn1
[1]
  AC50: 3.16 µM (inconclusive)
[3]
  AC50: 31.6 µM (inconclusive)

## COC(=O)C1(C)C=CC2(CCCCC2)N1C(=O)c1ccccc1 (configuration not stated)
[1]
  AC50: 20 µM (inconclusive)

## C=CCc1ccc2c(c1)OCO2 [SAFROLE]
[1]
  AC50: 3.16 µM (inconclusive)

## COC1(C#CC2C=CC(OC(C)=O)C(COC(C)=O)O2)CCCCC1 (configuration not stated)
[1]
  AC50: 3.98 µM (inconclusive)

## Cc1cccc(-n2c(=O)c3c4c(sc3n3c(=S)[nH]nc23)CCC4)c1
[2]
  IC50: 50 µM (inactive)

## CCc1c(C(=O)NNC(=S)NCC2CCCO2)csc1C (configuration not stated)
[4]
  IC50: > 100 µM (inactive)

## COC(=O)COc1ccc(S(=O)(=O)Nc2ccc3c(c2)OCO3)cc1
[5]
  IC50: > 50 µM (not active)
[2]
  IC50: > 64 µM (inactive)

## CN(C)c1ccc2c(c1)N=C(c1ccco1)OP2(=S)N1CCOCC1 (configuration not stated)
[6]
  EC50: 15.7 µM (active)
[7]
  EC50: 17.9 µM (active)
[2]
  IC50: > 64 µM (inactive)
[8]
  IC50: 179 µM (active)
[9]
  EC50: 49.6 µM (active)

## CC(=O)Nc1ccc(S(=O)(=O)Nc2cccc3[nH]ncc23)cc1
[10]
  IC50: > 50 µM (not active)

## O=C1c2cccnc2C(Nc2ccccc2)N1Cc1ccco1 (configuration not stated)
[11]
  IC50: 15.1 µM (active)

## O=C(CNC(=O)c1ccco1)N=Nc1c(O)[nH]c2ccc([N+](=O)[O-])cc12
[11]
  IC50: 20.6 µM (active)

## C/C(N)=C(/C#N)C(=O)COC(=O)CNS(=O)(=O)c1ccc2ccccc2c1
[11]
  IC50: 11.8 µM (active)

## Cc1ccccc1NC(=O)COC(=O)CCc1ccccc1
[10]
  IC50: 20.8 µM (not active)

## CC(C)CNS(=O)(=O)c1ccc(CCC(=O)Nc2cc(Cl)ccc2Oc2ccccc2)cc1
[10]
  IC50: 5.08 µM (not active)

## CN1C(=O)/C(=C/c2ccccc2Cl)Sc2ccc(C(=O)NCc3cccnc3)cc21
[12]
  EC50: > 150 µM (not active)
[10]
  IC50: 5.27 µM (not active)
[13]
  EC50: 4.4 µM (active)
[14]
  CC50: > 40 µM (active)
[15]
  EC50: 16.1 µM (active)

## COc1cc(NC2c3ncccc3C(=O)N2Cc2ccco2)cc(OC)c1OC (configuration not stated)
[11]
  IC50: 30.1 µM (active)

## O=S(=O)(c1ccccc1Cl)N1CCCC(c2nc(O)c3nnn(Cc4ccc5c(c4)OCCO5)c3n2)C1 (configuration not stated)
[16]
  CC50: 16.6 µM (active)
[11]
  IC50: 10.1 µM (active)

## CN1c2ccccc2C(C)(C)C12CC(c1cccc(S(=O)(=O)N3CCCC3)c1)=NO2 (configuration not stated)
[16]
  CC50: 17.7 µM (active)
[11]
  IC50: 18.3 µM (active)

## CC1=C(C(=O)OCC(C)C)C23C(=O)c4ccccc4C2(O1)OC(N)=C3C#N (configuration not stated)
[10]
  IC50: > 50 µM (not active)

## CCNC(=S)NNC(=O)c1cc(C2CC2)nc2ccccc12
[4]
  IC50: > 100 µM (inactive)

## COc1cccc(NC(=O)COc2ccc(N3CC(C(=O)NCC(C)C)CC3=O)cc2)c1 (configuration not stated)
[2]
  IC50: > 64 µM (inactive)

## Cc1ccc(F)c(NC(=O)/C(C#N)=C(\O)c2ccc(C(C)(C)C)cc2)c1
[17]
  IC50: 32.6 µM (active)
[12]
  EC50: > 150 µM (not active)
[13]
  EC50: 16.7 µM (active)
[15]
  EC50: > 150 µM (not active)
[18]
  AC50: > 100 µM (inactive)
[19]
  AC50: 1.96 µM (active)

## Cc1nn(Cc2cccc(C(=O)NC(C)c3ccc(C(C)(C)C)cc3)c2)c(C)c1[N+](=O)[O-] (configuration not stated)
[10]
  IC50: 6.98 µM (not active)
